Measured values reported in patent publication US20230095926A1, “PARASITE CONTROL IN RUMINANTS” (Intervet Inc., priority 2019, published 2023).

System: cattle sucking lice (Haematopinus eurysternus, Linognathus vituli)
Assay: Sucking lice efficacy study in cattle, natural infestation, single subcutaneous injection
Assay type: in vivo
Conditions: 1 mg/kg s.c.
Procedure: This study determined the efficacy (via reductions in total lice counts) of fluralaner in an injectable suspension formulation against natural infestations of cattle sucking (Haematopinus eurysternus, Linognathus vituli) and biting/chewing lice (Bovicola bovis) when applied at a single dose to young, lice infested cattle. Treatment efficacy was determined by whole body lice counts post treatment and comparison of treated and untreated (placebo) group mean lice counts. The naturally acquired louse infestations consisted of 2 species of sucking lice (Haematopinus eurysternus and Linognathus vituli) and the biting louse Bovicola bovis. Each animal was examined in a cattle crush prior to being selected from the parent mob to ensure that more than 30 sucking lice (combined total of both sucking lice species) were present. Fluralaner at a dose level of 1.0 mg/kg bw and Control Product were administered to cattle by subcutaneous injection. The numbers of live adults and live nymphs for each species of lice on each animal were counted at 7-day intervals starting with pre-treatment counts on Day −1 and post-treatment on Days 7, 14, 21, 28, 35, 42, 49 and 56.

Cc1cc(C2=NOC(c3cc(Cl)cc(Cl)c3)(C(F)(F)F)C2)ccc1C(=O)NCC(=O)NCC(F)(F)F (stereo not drawn) [Fluralaner, 4-[5-(3,5-dichlorophenyl)-5-trifluoromethyl-4,5-dihydroisoxazol-3-yl]-2-methyl-N-[(2,2,2-trifluoro-ethylcarbamoyl)-methyl]-benzamide]
efficacy (based on Arithmetic Means) against the sucking lice (Day 7): 97.69% | efficacy (based on Arithmetic Means) against the sucking lice (Day 14): 99.89% | lice found on treated cattle (from Day 21 until Day 56): no lice of any species found
